US11873291B2, “Quinoline cGAS antagonist compounds” (ImmuneSensor Therapeutics, Inc., priority 2020, dated 2024)
Where two headings read alike, the source gives them in different places.

Biological target: T1, recombinant human cGAS (aa147-522) (Homo sapiens, UniProt Q8N884)
T1 construct: recombinant human cGAS (aa147-522); His6-SUMO (cleaved yes); made in house; host or cells: E. coli BL21/pLys
Assay: In vitro inhibition assay of cGAS activity (ATP consumption, KinaseGlo Max)
Type: biochemical
Summary of the method: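 IC50 came from plotting % ATP consumption against log compound concentration, with leftover ATP detected by KinaseGlo Max chemiluminescence. Reactions ran 20 min at 37 °C with 1.5 μg/mL human cGAS (aa147-522), 6.6 μM ATP, 0.1 mM GTP and 0.01 mg/mL DNA at pH 7.5.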

[1] = Table 3, read-out: cGAS Inhibition Results IC50
[2] = Table 2, read-out: cGAS Inhibition Results IC50

T1 sequence (Q8N884 147-522): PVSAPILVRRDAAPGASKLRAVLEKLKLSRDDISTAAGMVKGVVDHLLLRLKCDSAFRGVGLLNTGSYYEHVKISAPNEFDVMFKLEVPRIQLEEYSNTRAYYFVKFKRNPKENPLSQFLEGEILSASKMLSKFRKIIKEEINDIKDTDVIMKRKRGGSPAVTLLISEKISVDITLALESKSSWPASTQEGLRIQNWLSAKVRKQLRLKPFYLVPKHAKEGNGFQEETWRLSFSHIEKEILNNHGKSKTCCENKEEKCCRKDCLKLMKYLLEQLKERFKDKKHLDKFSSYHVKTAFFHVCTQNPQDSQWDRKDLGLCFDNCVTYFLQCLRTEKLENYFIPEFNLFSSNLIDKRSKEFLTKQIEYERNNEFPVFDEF

SMILES	IC50 [1]	IC50 [2]
CN(CCC(=O)NCCC(=O)O)c1cc(-c2cn[nH]c2)c2ccc(Cl)c(Cl)c2n1 [I-320]	–	< 2000 nM
Clc1ccc2c(-n3ccnc3)cc(Nc3ccccc3)nc2c1 [I-355]	–	2000 to 30000 nM
CN(CCCO[PH](=O)O)c1cc(-c2cn[nH]c2)c2ccc(Cl)c(Cl)c2n1 [I-256]	–	< 2000 nM
O=C(O)CNc1cc(-n2ccnc2)c2ccc(Cl)cc2n1 [I-166, (7-chloro-4-(1H-imidazol-1-yl)quinolin-2-yl)glycine]	–	2000 to 30000 nM
Clc1ccc2c(-n3ccnc3)cc(N3CCCCC3)nc2c1Cl [I-121]	–	2000 to 30000 nM
O=C(Nc1ccccc1)[C@@H]1CCCN1c1cc(-n2ccnc2)c2ccc(Cl)c(Cl)c2n1 [I-348]	–	> 30000 nM
O=C(CO)NC[C@@H]1CCCN1c1cc(-n2ccnc2)c2ccc(Cl)c(Cl)c2n1 [I-154, (S)—N-((1-(7,8-dichloro-4-(1H-imidazol-1-yl)quinolin-2-yl)pyrrolidin-2-yl)methyl)-2-hydroxyacetamide]	–	< 2000 nM
O=C(O)C1CCC=C(c2cc(-c3cn[nH]c3)c3ccc(Cl)c(Cl)c3n2)C1 (centres unmarked) [I-273, 3-(7,8-dichloro-4-(1H-pyrazol-4-yl)quinolin-2-yl)cyclohex-3-ene-1-carboxylic acid]	–	2000 to 30000 nM
NS(=O)(=O)CCNc1cc(-c2cn[nH]c2)nc2ccc(C(F)(F)F)cc12 [I-301]	–	> 30000 nM
O=C(O)c1cc(-c2cc(Cl)c3ccc(Cl)c(Cl)c3n2)ccc1O [I-75, 2-Hydroxy-5-(4,7,8-trichloroquinolin-2-yl)benzoic acid]	–	> 30000 nM
NS(=O)(=O)CC1CCCN1c1cc(-n2ccnc2)c2ccc(Cl)c(Cl)c2n1 (centres unmarked) [I-148]	–	< 2000 nM
CC(C)(C)OC(=O)NS(=O)(=O)N1CCOC(CNc2cc(-n3ccnc3)c3ccc(Cl)c(Cl)c3n2)C1 (centres unmarked) [I-398, tert-butyl ((2-(((7,8-dichloro-4-(1H-imidazol-1-yl)quinolin-2-yl)amino)methyl)morpholino)sulfonyl)carbamate]	–	2000 to 30000 nM
O=C(O)CCc1cc(-c2cn[nH]c2)c2ccc(Cl)c(Cl)c2n1 [I-270, 3-(7,8-dichloro-4-(1H-pyrazol-4-yl)quinolin-2-yl)propanoic acid]	–	< 2000 nM
O=C(O)c1cc(OCCO)cc(-c2cc(-n3ccnc3)c3ccc(Cl)cc3n2)c1 [I-29]	–	< 2000 nM
CN(CC(N)=O)c1cc(-n2ccnc2)c2ccc(Cl)c(Cl)c2n1 [I-179]	–	2000 to 30000 nM
CN(CCC(=O)O)c1cc(-n2ccnc2)c2ccc(Cl)c(Cl)c2n1 [I-183]	–	< 2000 nM
Clc1ccc2c(-c3cc[nH]c3)cc(-c3ccccc3)nc2c1 [I-72]	–	> 30000 nM
CN(CCNS(=O)(=O)c1ccccc1)c1cc(-n2ccnc2)c2ccc(Cl)cc2n1 [I-227]	–	> 30000 nM
Brc1ccc2c(-n3ccnc3)cc(-c3cccnc3)nc2c1 [I-384]	–	2000 to 30000 nM
NS(=O)(=O)CCNc1cc(NCC(=O)O)c2ccc(Cl)c(Cl)c2n1 [I-318, (7,8-dichloro-2-((2-sulfamoylethyl)amino)quinolin-4-yl)glycine]	–	> 30000 nM
Brc1ccc2c(-n3nccn3)ccnc2c1 [I-419]	–	> 30000 nM
O=C(O)[C@@H]1CCCN1c1cc(-c2cn[nH]c2)nc2c(Cl)c(Cl)ccc12 [I-291]	–	2000 to 30000 nM

SMILES	IC50 [1]	IC50 [2]
N#Cc1cn(-c2cc(-c3ccccc3)nc3cc(Cl)ccc23)cn1 [I-62]	–	> 30000 nM
NS(=O)(=O)CCNc1ccc2ccc(Cl)c(Cl)c2n1 [I-296]	–	> 30000 nM
NS(=O)(=O)CCNc1cc(-c2cn[nH]c2)c2cc(C(F)(F)F)ccc2n1 [I-265]	–	> 30000 nM
O=C(O)C1CCN(C(=O)C[C@@H]2CCCN2c2cc(-n3ccnc3)c3ccc(Cl)c(Cl)c3n2)C1 (some centres unmarked) [I-339]	–	< 2000 nM
CN(CCNS(=O)(=O)c1cccnc1)c1cc(-n2ccnc2)c2ccc(Cl)cc2n1 [I-231]	–	2000 to 30000 nM
Brc1ccc2c(-n3cncn3)ccnc2c1 [I-418]	–	> 30000 nM
O=[PH](O)OCCC1CCCN(c2cc(-c3cn[nH]c3)c3ccc(Cl)c(Cl)c3n2)C1 (centres unmarked) [I-330]	–	< 2000 nM
Clc1ccc2c(-n3ccnc3)cc(NCCN3CCOCC3)nc2c1 [I-354]	–	> 30000 nM
OCc1cn(-c2cc(-c3ccccc3)nc3cc(Cl)ccc23)cn1 [I-63]	–	> 30000 nM
CN(CCN1CCOCC1)c1cc(-c2cn[nH]c2)c2ccc(Cl)c(Cl)c2n1 [I-214]	–	2000 to 30000 nM
O=C(O)c1cc(-c2cc(-n3ccnc3)c3ccc(Cl)cc3n2)ccc1OCCO [I-21, 5-(7-chloro-4-(1H-imidazol-1-yl)quinolin-2-yl)-2-(2-hydroxyethoxy)benzoic acid]	–	< 2000 nM
COc1c(-c2ccccc2)ccc2c(-n3ccnc3)cc(-c3ccccc3)nc12 [I-51]	–	> 30000 nM
COc1ccc2c(-n3ccnc3)ccnc2c1 [I-417]	–	> 30000 nM
O=C(O)[C@H]1CCCN1c1cc(-c2cn[nH]c2)nc2c(Cl)c(Cl)ccc12 [I-292]	–	2000 to 30000 nM
O=C(O)[C@@H]1CN(c2cc(-n3ccnc3)c3ccc(Cl)cc3n2)CC[C@@H]1O [I-136]	–	2000 to 30000 nM
CN(C)S(=O)(=O)CCNc1cc(-n2ccnc2)c2ccc(Cl)c(Cl)c2n1 [I-202]	–	< 2000 nM
Brc1ccc2c(-n3cccn3)ccnc2c1 [I-414]	–	> 30000 nM
c1ccc2c(-n3cccn3)ccnc2c1 [I-413]	–	> 30000 nM
CN(CCC(N)=O)c1cc(-c2cn[nH]c2)c2ccc(Cl)c(Cl)c2n1 [I-191]	–	< 2000 nM
O=P(O)(O)Cc1cc(-n2ccnc2)c2ccc(Cl)c(Cl)c2n1 [I-251, ((7,8-dichloro-4-(1H-imidazol-1-yl)quinolin-2-yl)methyl)phosphonic acid]	–	> 30000 nM
Clc1ccc2c(-c3cccnc3)cc(-c3ccccc3)nc2c1 [I-69]	–	> 30000 nM

Next, values leading:

IC50 [1]	IC50 [2]	SMILES
< 2000 nM	–	N#C[C@@H]1CCCN1c1cc(-n2ccnc2)c2ccc(Cl)c(Cl)c2n1 [I-495]
2000 to 30000 nM	–	CCOC(=O)[C@@H]1CC[C@H](C)N1c1cc(-n2ccnc2)c2ccc(Cl)c(Cl)c2n1 [I-460]
2000 to 30000 nM	–	CN(CCC(=O)O)C[C@@H]1CCCN1c1cc(-n2ccnc2)c2ccc(Cl)c(Cl)c2n1 [I-754, (S)-3-(((1-(7,8-dichloro-4-(1H-imidazol-1-yl)quinolin-2-yl)pyrrolidin-2-yl)methyl)(methyl)amino)propanoic acid]
2000 to 30000 nM	–	COC(=O)[C@@H]1[C@H](OCC(=O)O)CCN1c1cc(-n2ccnc2)c2ccc(Cl)c(Cl)c2n1 [I-648]
< 2000 nM	–	OC[C@@H]1CCN1c1cc(-n2ccnc2)c2ccc(Cl)c(Cl)c2n1 [I-659]
2000 to 30000 nM	–	NS(=O)(=O)C1CCN(C(=O)C[C@@H]2CCCN2c2cc(-n3ccnc3)c3ccc(Cl)c(Cl)c3n2)C1 (some centres unmarked) [I-537]
> 30000 nM	–	OC([C@@H]1CCCN1c1cc(-n2ccnc2)c2ccc(Cl)c(Cl)c2n1)(C(F)(F)F)C(F)(F)F [I-656, (S)-2-(1-(7,8-dichloro-4-(1H-imidazol-1-yl)quinolin-2-yl)pyrrolidin-2-yl)-1,1,1,3,3,3-hexafluoropropan-2-ol]
2000 to 30000 nM	–	CC12CN(c3cc(-n4ccnc4)c4ccc(Cl)c(Cl)c4n3)C(C(=O)O)(C1)C2 [I-475]
< 2000 nM	–	C[C@H]1CCN(c2cc(-n3ccnc3)c3ccc(Cl)c(Cl)c3n2)[C@@H]1C(=O)O [I-482]
> 30000 nM	–	Nc1ccc(-c2cc(N3CCC[C@H]3COCCC(=O)O)nc3c(Cl)c(Cl)ccc23)cn1 [I-822, (S)-3-((1-(4-(6-aminopyridin-3-yl)-7,8-dichloroquinolin-2-yl)pyrrolidin-2-yl)methoxy)propanoic acid]
< 2000 nM	–	CN(CCS(=O)(=O)N1CCC(C(=O)O)C1)c1cc(-n2ccnc2)c2ccc(Cl)c(Cl)c2n1 (centres unmarked) [I-627]
2000 to 30000 nM	–	NS(=O)(=O)CC1CCCN1C(=O)C[C@@H]1CCCN1c1cc(-n2ccnc2)c2ccc(Cl)c(Cl)c2n1 (some centres unmarked) [I-534]
2000 to 30000 nM	–	CC(C)N(CCCOc1cccc(F)c1C(=O)O)c1cc(-n2ccnc2)c2ccc(Cl)c(Cl)c2n1 [I-850]
< 2000 nM	–	COC(=O)CNC(=O)O[C@@H]1CCN(c2cc(-n3ccnc3)c3ccc(Cl)c(Cl)c3n2)[C@@H]1C(=O)OC [I-653, methyl (2S,3R)-1-(7,8-dichloro-4-(1H-imidazol-1-yl)quinolin-2-yl)-3-(((2-methoxy-2-oxoethyl)carbamoyl)oxy)pyrrolidine-2-carboxylate]
< 2000 nM	–	CC(C)(NC(=O)C[C@@H]1CCCN1c1cc(-n2ccnc2)c2ccc(Cl)c(Cl)c2n1)C(=O)O [I-527]
> 30000 nM	–	O=C(NC12CC(C(=O)O)(C1)C2)[C@@H]1CCCN1c1cc(-n2ccnc2)c2ccc(Cl)c(Cl)c2n1 [I-551]
< 2000 nM	–	CN(CCS(=O)(=O)N1CCCC(C(=O)O)C1)c1cc(-n2ccnc2)c2ccc(Cl)c(Cl)c2n1 (centres unmarked) [I-631]
< 2000 nM	–	CN(CCC(=O)NCCS(N)(=O)=O)c1cc(-n2ccnc2)c2ccc(Cl)c(Cl)c2n1 [I-567]
< 2000 nM	–	O=C(O)[C@@H]1[C@H]2C[C@H]2CN1c1cc(-n2ccnc2)c2ccc(Cl)c(Cl)c2n1 [I-480]
< 2000 nM	–	O=C(O)CNC(=O)O[C@@H]1C[C@@H](C(=O)O)N(c2cc(-n3ccnc3)c3ccc(Cl)c(Cl)c3n2)C1 [I-607]
2000 to 30000 nM	–	CN(CCNS(=O)(=O)c1ccc(C(=O)O)cc1)c1cc(-n2ccnc2)c2ccc(Cl)c(Cl)c2n1 [I-612]
2000 to 30000 nM	–	COC(=O)[C@@H]1C[C@@H](O)CN1c1cc(-n2ccnc2)c2ccc(Cl)c(Cl)c2n1 [I-472]
2000 to 30000 nM	–	NC(=O)CNC(=O)[C@@H]1CCCN1c1cc(-n2ccnc2)c2ccc(Cl)c(Cl)c2n1 [I-608]
< 2000 nM	–	O=C1NC(=O)[C@H](CS(=O)(=O)NC[C@@H]2CCCN2c2cc(-n3ccnc3)c3ccc(Cl)c(Cl)c3n2)N1 [I-637]
2000 to 30000 nM	–	COC(=O)C1N(c2cc(-n3ccnc3)c3ccc(Cl)c(Cl)c3n2)CCC1(C)C (centres unmarked) [I-587]
< 2000 nM	–	O=C(O)CS(=O)(=O)NC[C@@H]1CCCN1c1cc(-n2ccnc2)c2ccc(Cl)c(Cl)c2n1 [I-639]
< 2000 nM	–	O=C(O)c1ccc(OC[C@@H]2CCCN2c2cc(-n3ccnc3)c3ccc(Cl)c(Cl)c3n2)cc1 [I-737]
–	< 2000 nM	COc1ccc(-c2cc(-c3cn[nH]c3)c3ccc(Cl)c(Cl)c3n2)cc1C(=O)O [I-427]
